In patent publication US20110245537A1, “L-carnitine calcium fumarate, preparation method and application for the same” (Liaoning Konepnutra Co., Ltd, priority 2009, published 2011):

Tests used:
[1] = cited from earlier work
[2] = hygroscopicity: caking or sticking on exposure to air; type: physicochemical; details: 25° C., relative humidity of 60±5%, 24 hours exposure to air
From the text: The obtained L-carnitine calcium fumarate is in uniform powder form with good fluidity, more than 98% of which is smaller than 40 mesh size. […] The product has a calcium content of 6.76% with good non-hygrosopicity.
The obtained L-carnitine calcium fumarate is in uniform powder form and has good fluidity, greater than 98% of which is smaller than 40 mesh in granular size. […] The product has a calcium content of 9.28%, with better non-hygrosopicity.

Row | Compound | relative humidity at which the salt will deliquesce [1] | caking or sticking phenomena (non-hygroscopicity) [2]
1 | C[N+](C)(C)C[C@H](O)CC(=O)[O-].O=C(O)C(O)C(O)C(=O)O [L-carnitine tartrate, L-carnitine L-tartrate] | over 60% | –
2 | L-Carnitine Calcium Fumarate (1:2:1) [Example 2] | – | no caking or sticking phenomena
3 | L-Carnitine Calcium Fumarate (2:2:1) [Example 1] | – | no caking or sticking phenomena
